According to the supplement of paper PMC10307832:

Experiments:
Test in all cases: relative viability (nuclei count vs DMSO), 5 days (fraction); higher = more cells survive
Kobe2602 + OSI-027 = compound: C1=CC(=CC=C1NC(=S)NNC2=C(C=C(C=C2[N+](=O)[O-])C(F)(F)F)[N+](=O)[O-])F [Kobe2602] + COc1cccc2cc(-c3nc([C@H]4CC[C@H](C(=O)O)CC4)n4ncnc(N)c34)[nH]c12 [OSI-027] (partner 0.5 µM)
Summary of the method: (§1)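 Lung cancer cell lines were seeded in 1536-well plates and dosed by pin tool the next day, with either a single drug or a fixed anchor-drug dose combined with five library-drug doses (not always all listed) spaced in √10 steps. Five days later, one step fixed the cells and stained their nuclei (final 0.05% Triton X-100, 1% formaldehyde, 1 ug/ml Hoechst), and nuclei were counted on 4× images. Relative viability is the nuclei count in treated wells divided by the count in vehicle wells, and each value is the median of duplicate plates.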

Kobe2602 + Dasatinib = compound: C1=CC(=CC=C1NC(=S)NNC2=C(C=C(C=C2[N+](=O)[O-])C(F)(F)F)[N+](=O)[O-])F [Kobe2602] + Cc1nc(Nc2ncc(C(=O)Nc3c(C)cccc3Cl)s2)cc(N2CCN(CCO)CC2)n1 [Dasatinib] (partner 0.075 µM)
Summary of the method: as §1

[1] = compound: COc1cc2nccc(Oc3ccc(NC(=O)C4(C(=O)Nc5ccc(F)cc5)CC4)cc3)c2cc1OC [Cabozantinib] + CC(=O)Nc1cccc(-n2c(=O)n(C3CC3)c(=O)c3c(Nc4ccc(I)cc4F)n(C)c(=O)c(C)c32)c1 [Trametinib] (partner 0.02 µM)
Summary of the method: as §1

[2] = compound: COc1cc2nccc(Oc3ccc(NC(=O)C4(C(=O)Nc5ccc(F)cc5)CC4)cc3)c2cc1OC [Cabozantinib] + N=C(N)NC(=N)NCCc1ccccc1 [Phenformin] (partner 250 µM)
Summary of the method: as §1

Cell Line | relative viability (Kobe2602 + OSI-027; first compound 0.2 µM) | relative viability (Kobe2602 + OSI-027; first compound 0.6325 µM) | relative viability (Kobe2602 + OSI-027; first compound 2 µM) | relative viability (Kobe2602 + OSI-027; first compound 6.325 µM) | relative viability (Kobe2602 + OSI-027; first compound 20 µM) | relative viability (Kobe2602 + Dasatinib; first compound 0.2 µM) | relative viability (Kobe2602 + Dasatinib; first compound 0.6325 µM) | relative viability (Kobe2602 + Dasatinib; first compound 2 µM) | relative viability (Kobe2602 + Dasatinib; first compound 6.325 µM) | relative viability (Kobe2602 + Dasatinib; first compound 20 µM) | relative viability ([1]; first compound 0.02 µM) | relative viability ([1]; first compound 0.06325 µM) | relative viability ([1]; first compound 0.2 µM) | relative viability ([1]; first compound 0.6325 µM) | relative viability ([1]; first compound 2 µM) | relative viability ([2]; first compound 0.02 µM) | relative viability ([2]; first compound 0.06325 µM) | relative viability ([2]; first compound 0.2 µM) | relative viability ([2]; first compound 0.6325 µM) | relative viability ([2]; first compound 2 µM)
EPLC-272H | 0.3 | 0.286 | 0.289 | 0.311 | 0.32 | 0.387 | 0.387 | 0.303 | 0.331 | 0.355 | 0.275 | 0.318 | 0.275 | 0.246 | 0.245 | 0.269 | 0.331 | 0.24 | 0.357 | 0.291
A-427 | 0.508 | 0.583 | 0.399 | 0.446 | 0.476 | 0.673 | 0.766 | 0.675 | 0.701 | 0.779 | 0.729 | 0.801 | 0.772 | 0.762 | 0.743 | 0.374 | 0.321 | 0.427 | 0.359 | 0.232
NCI-H727 | 0.57 | 0.604 | 0.744 | 0.545 | 0.888 | 0.376 | 0.384 | 0.342 | 0.484 | 0.392 | 0.42 | 0.409 | 0.443 | 0.395 | 0.386 | 0.447 | 0.617 | 0.477 | 0.495 | 0.528
NCI-H1993 | 0.552 | 0.511 | 0.544 | 0.569 | 0.597 | 0.575 | 0.501 | 0.544 | 0.532 | 0.607 | 0.508 | 0.531 | 0.526 | 0.436 | 0.571 | 0.448 | 0.521 | 0.511 | 0.473 | 0.476
LK-2 | 0.231 | 0.208 | 0.239 | 0.248 | 0.212 | 0.377 | 0.35 | 0.319 | 0.274 | 0.342 | 0.678 | 0.836 | 0.717 | 0.863 | 0.781 | – | 0.508 | – | 0.396 | 0.607
SW 1573 | 0.722 | 0.535 | 0.531 | 0.62 | 0.303 | 0.473 | 0.655 | 0.58 | 0.483 | 0.243 | 0.57 | 0.631 | 0.588 | 0.516 | 0.436 | 0.45 | 0.368 | 0.331 | 0.365 | 0.345
NCI-H1915 | 0.596 | 0.71 | 0.612 | 0.656 | 0.643 | 0.336 | 0.338 | 0.289 | 0.318 | 0.341 | 0.331 | 0.345 | 0.335 | 0.304 | 0.28 | 0.364 | 0.389 | 0.374 | 0.373 | 0.362
NCI-H661 | 0.691 | 0.71 | 0.731 | 0.8 | 0.672 | 0.799 | 1.09 | 0.904 | 0.847 | 0.758 | 0.542 | 0.653 | 0.579 | 0.572 | 0.605 | 0.273 | 0.252 | 0.283 | 0.335 | 0.286
NCI-H520 | 0.281 | 0.287 | 0.227 | 0.235 | 0.266 | 0.205 | 0.233 | 0.197 | 0.222 | 0.202 | 0.699 | 0.83 | 0.808 | 0.73 | 0.538 | 0.608 | 0.598 | 0.65 | 0.672 | 0.432
COR-L 105 | 0.631 | 0.784 | 0.623 | 0.82 | 0.843 | 0.392 | 0.366 | 0.357 | 0.362 | 0.338 | 0.422 | 0.377 | 0.4 | 0.405 | 0.481 | 0.387 | 0.477 | – | 0.581 | 0.481
NCI-H1563 | 0.721 | 0.743 | 0.797 | 0.757 | 0.754 | 0.473 | 0.473 | 0.466 | 0.467 | 0.527 | – | – | – | – | – | 0.601 | 0.668 | 0.658 | 0.702 | 0.709
ABC-1 | 0.582 | 0.501 | – | 0.585 | 0.628 | 0.615 | 0.568 | – | 0.769 | 0.47 | – | – | – | – | – | 0.244 | 0.276 | 0.235 | 0.28 | 0.218
NCI-H1648 | 0.246 | 0.277 | 0.248 | 0.26 | 0.25 | – | – | – | – | – | 0.501 | 0.448 | – | 0.672 | 0.419 | – | – | – | – | –
A549 | – | – | – | – | – | – | – | – | – | – | – | – | – | – | – | 0.407 | 0.173 | 0.215 | 0.156 | 0.147
NCI-H1623 | 0.457 | 0.448 | 0.424 | 0.374 | 0.433 | 0.577 | 0.555 | 0.427 | 0.532 | 0.575 | – | – | – | – | – | 0.545 | 0.667 | 0.526 | 0.519 | 0.585
HCC-44 | 0.484 | 0.597 | 0.377 | 0.586 | 0.683 | – | – | – | – | – | 1.04 | 1.15 | 1.21 | 1.06 | 1.04 | 0.102 | 0.273 | 0.275 | 0.224 | 0.224
